“Also recorded” adds a separate entry of the source.
Assays:
PI3-kinase/AKT pathway = test: Activation of PI3-kinase/AKT pathway in rat Leydig cells (activation specific antibodies); type: cell-based; conditions: 30 min
Method: (§1) To determine the effects of SIP and EGF on activation of proteins involved in either MAP-kinase or PI3-kinase signaling pathway, immature Leydig cells were cultured in 6-well plates. The cells were washed and treated with SIP (50 μg/ml) or EGF (10 ng/ml) for 30 min in the presence or absence of inhibitors of MAPK-kinase (PD98059; 25 μM) or PI3-kinase (LY294002; 5 μM). The cells were washed twice with ice-cold phosphate-buffered saline and lysed in lysis buffer (Cell Signaling Technology, Beverly, Mass.) containing 20 mM Tris-HCl (pH 7.5), 150 mM NaCl, 1 mM Na2EDTA, 1 mM EGTA, 1% Triton, 2.5 mM sodium pyrophosphate, 1 mM β-glycerophosphate, 1 mM Na3VO4, 1 μg/ml leupeptin and 1× protease inhibitor cocktail (Calbiochem, San Diego, Calif.). Protein concentrations were determined by the Lowry HS assay using the Bio-Rad DCProtein Assay kit (Bio-Rad, Hercules, Calif.) according to the instruction provided by the manufacturer. Cell lysates were mixed with Lammeli's buffer (62.5 mM Tris, pH 6.8, 2% SDS, 5% β-mercaptoethanol and 10% glycerol), and individual samples (25 μg protein) were subjected to SDS-PAGE in 10% gels and transferred to PVDF membranes (Millipore). The membranes were blocked overnight at 4° C. in TBST (50 mM Tris, pH 7.5, containing 0.15M NaCl, 0.05% Tween-20 and 4% fat-free skimmed milk). […]

rat Leydig cells = test: Testosterone production by rat Leydig cells (radioimmunoassay); type: cell-based; conditions: cultured 6, 24 or 48 hours; for testosterone production: radioimmunoassay
Method: Immature rat Leydig cells (ILC) were isolated from 10-day old rat testes and cultured with serum-free medium before treatment. Immature rats were sacrificed at 10 days of age, and the testes were removed Immature Leydig cells were isolated and cultured. The decapsulated testes were incubated for 5 min in culture medium containing 0.25 mg collagenase/ml (Type I, Sigma) in shaking water bath. The seminiferous tubules were allowed to settle at unit gravity for 5 min, and the supernatant containing the suspension of interstitial cells was removed. The supernatant was centrifuged at 90×g for 10 min, and the cell pellet was washed twice by re-suspension in fresh medium followed by centrifugation. The cell suspension was plated in 24-well tissue culture plates (Nunclon; Nunc, Roskilde, Denmark; 2×10^5 cells/well) or in 6-well plates (2×10^6 cells/well) depending upon the end point of the experiment. The cells were cultured at 37° C. in a humidified atmosphere of 5% CO2 and 95% air in serum-free medium. After 1 h, the immature Leydig cells were well attached to the surface of the culture plates, whereas contaminating cells (Sertoli cells, germ cells, precursor Leydig cells) were loosely attached. The cells were washed three times with medium to remove loosely attached cells. At this stage, the cell preparation contains more than 90% immature Leydig cells. Immature Leydig cells cultured in 24-well plates (2×10^5 cells/well) were treated with several doses of oLH for 48 h, and the conditioned media were analyzed for androgen content.
Immature Leydig cells were cultured for 18 h and treated with different concentrations of oLH, SIP and EGF. […] The incubation media were collected and analyzed for total androgens using a radioimmunoassay, as described previously (Dickson et al., 2002). […] All samples were analyzed in the same assay, and the intra-assay coefficient of variation was <10%.

StAR mRNA = StAR mRNA expression in rat Leydig cells (RT-PCR); type: cell-based; conditions: Leydig cells treated for 24 hour
Method: Total RNA was isolated from Leydig cells using TRIzol (Invitrogen, Carlsbad, Calif.) followed by chloroform extraction and isopropanol precipitation. Two micrograms of total RNA were reverse transcribed at 37° C. for 1 h in a reaction mixture containing 0.5 mM dNTP (Fisher Scientific), 400 U of M-MLV Reverse Transcriptase (Promega), 1×RT buffer, 0.5 mM dithiotreitol (Bio-Rad) and 0.5 μg of oligo dT (Promega). After incubation, the RT enzyme was heat inactivated at 70° C. for […] and the reaction cooled to 4° C. Four microliters of RT reactions were added to separate PCR reaction mixtures (total 10 μl) containing 0.1 mM dNTPs, (Fisher), 0.5 U Tag DNA polymerase (PGC Scientifics, Frederick, Md.), 1×PCR buffer with 3 mM MgC12 (Idaho Technology, Salt Lake City, Utah) and […] of the specific primers for the following genes: scavenger receptor B type 1 (SR-B1), cytochrome P450 cholesterol side-chain cleavage (P450scc), 3β-hydroxysteroid dehydrogenase (3β-HSD), 17 alpha-hydroxylase/C17-20 lyase (P450c17) and steroidogenic acute regulatory (StAR) protein. L19 (a ribosomal protein) primer pair was used as internal control. The following protocol was used in the Rapid Cycler thermal cycler (Idaho Technology): 94° C. for 15 s (initial denaturation), followed by 94° C. for 0 s, 60° C. for 0 s, 72° C. for 20 s for 35 cycles, and 72° C. for 30 s (final extension). […]

[1] = system: immature rat Leydig cells and ovarian, prostate and liver cancer cell lines; test: DNA synthesis in Leydig cells and cancer cell lines (summary of FIGS. 8-10); type: cell-based
Method: (§2) Ovarian (HEY, SKA), prostate (DU145, PC3) and breast (MCF7) cancer cell lines were cultured and maintained using well-established culture procedures.
(§3) Immature rat Leydig cells and various cancer cell lines were starved for 48 hours before treatment. The cells were then treated with SIP, the polypeptide having the amino acid sequence identified as SEQ ID NO:2, LH, and EGF for 18 hours. The incubation media were collected (Leydig cells) and analyzed for total androgen production. ^3H-thymidine (1 μCi/ml) was added to the cells for further 4 hours incubation. Then the hot media were removed; ice-cold water was added to the cells which were lysed by sonication. The cell lysates were filterd through DE81 ion-exchanger filters. The filter membranes were then put in vials filled with scintillation fluid, and the radioactivity was measured by a Beckman β-counter.

StAR protein = StAR protein expression in rat Leydig cells (Western blotting); type: cell-based; conditions: Leydig cells treated for 24 hour, listed as synthetic peptide 2
[2] = system: tyrosine phosphorylation of Leydig cell proteins; test: Tyrosine phosphorylation of Leydig cell proteins (phospho-tyrosine immunoblot); type: cell-based, rat; conditions: Leydig cells treated for 30 minutes; listed as synthetic peptide 2
Method: as §1

[3] = system: MAP-kinase signaling pathway (Ras, MEK, ERK); test: Activation of MAP-kinase signaling pathway in Leydig cells (activation specific immunoblots); type: cell-based, rat; conditions: 30 minutes
Method: as §1

[4] = system: immature rat Leydig cells; test: Thymidine incorporation assay (DNA synthesis) in immature rat Leydig cells; type: cell-based; conditions: 3H-thymidine incorporation
Method: Immature rat Leydig cells (ILC) were isolated from 10-day old rat testes and cultured with serum-free medium before treatment. Immature rats were sacrificed at 10 days of age, and the testes were removed Immature Leydig cells were isolated and cultured. The decapsulated testes were incubated for 5 min in culture medium containing 0.25 mg collagenase/ml (Type I, Sigma) in shaking water bath. The seminiferous tubules were allowed to settle at unit gravity for 5 min, and the supernatant containing the suspension of interstitial cells was removed. The supernatant was centrifuged at 90×g for 10 min, and the cell pellet was washed twice by re-suspension in fresh medium followed by centrifugation. […] Immature Leydig cells cultured in 24-well plates (2×10^5 cells/well) were treated with several doses of oLH for 48 h, and the conditioned media were analyzed for androgen content.
Immature rat Leydig cells and various cancer cell lines were starved for 48 hours before treatment. […] The incubation media were collected (Leydig cells) and analyzed for total androgen production. ^3H-thymidine (1 μCi/ml) was added to the cells for further 4 hours incubation. […] The filter membranes were then put in vials filled with scintillation fluid, and the radioactivity was measured by a Beckman β-counter.

[5] = system: human ovarian epithelial cancer (HEY) cells; test: Thymidine incorporation assay (DNA synthesis) in HEY cells; type: cell-based; conditions: different doses of peptide
Method: as §2, §3

Leydig cells = test: Effect of kinase inhibitors on SIP-stimulated DNA synthesis in Leydig cells; type: cell-based, rat; conditions: PD98059 25 μM; LY294002 5 μM; with SIP
Method: as §3
Immature Leydig cells were cultured for 18 h and treated with different concentrations of oLH, SIP and EGF. For some experiments, the cells were treated with oLH or SIP for 18 h in the absence or presence of inhibitors of tyrosine kinase (Genistein; 10 uM), MAPK-kinase (PD98059; 25 μM), PI3-kinase (LY294002; 5 μM) or PKA (H89; 10 μM) to determine the intracellular signaling pathways involved in the effects of SIP on androgen production. The incubation media were collected and analyzed for total androgens using a radioimmunoassay, as described previously (Dickson et al., 2002). […] All samples were analyzed in the same assay, and the intra-assay coefficient of variation was <10%.

Compound | activation of PI3-kinase/AKT pathway (AKT phosphorylation) (PI3-kinase/AKT pathway) | activation of PI3-kinase/AKT pathway (AKT phosphorylation) (PI3-kinase/AKT pathway; listed as synthetic peptide 2) | testosterone production compared with purified SIP (rat Leydig cells) | testosterone production (rat Leydig cells; listed as SEQ ID NO:2) | testosterone production (rat Leydig cells; listed as synthetic SIP peptide 2) | expression of StAR mRNA (StAR mRNA) | DNA synthesis in different cells [1] | expression of StAR protein (StAR protein) | tyrosine phosphorylation of cell proteins [2] | activation of MAP-kinase pathway (Ras, MEK, ERK1/ERK2 phosphorylation) [3] | activation of MAP-kinase pathway (Ras, MEK, ERK1/ERK2 phosphorylation) ([3]; listed as synthetic peptide 2) | DNA synthesis [4] | DNA synthesis [5] | effect of inhibitor on SIP effects on DNA synthesis (Leydig cells)
DVNGGGATLPQPLYQTA [peptide 2] | activated | significant induction of phosphorylation | not as high as those observed with purified SIP | significant stimulation of testosterone production | stimulation of testosterone production | induce the expression of StAR mRNA | significant stimulation of DNA synthesis | stimulated the induction of StAR protein; also recorded: induce the expression of protein | induces the phosphorylation of several proteins at tyrosine; also recorded: capable of binding to SIP receptors and initiating signaling cascade | activated | significant induction of phosphorylation | capable of inducing proliferation of immature rat Leydig cells | capable of exerting mitogenic effects | 
COc1cccc(-c2cc(=O)c3ccccc3o2)c1N [PD98059] |  |  |  |  |  |  |  |  |  |  |  |  |  | blocks the effects of SIP on DNA synthesis

From patent US20120258113A1, “SUSBSTANTIALLY PURE STEROIDOGENESIS INDUCING PEPTIDE AND USES THEREOF” (CLARK ATLANTA UNIVERSITY, priority 2006, published 2012)
